Measured values: ChEMBL document CHEMBL4270507, “Covalent binding design strategy: A prospective method for discovery of potent targeted anticancer agents” (Eur J Med Chem, 2017)

Columns and labels:
[1] = system: GTPase KRas (Homo sapiens), P01116 [G12C]; assay: Binding affinity to hexa-histidine-tagged recombinant human K-Ras isoform 2 G12C mutant (1 to 169 residues) expressed in Escherichia coli BL21 (DE3) at 10 uM after 24 hrs
[2] = target: Tyrosine-protein kinase BTK (Homo sapiens, UniProt Q06187); assay: Inhibition of BTK (unknown origin)

Row | Structure (SMILES) | Activity [1] | IC50 [2]
1 | C=CC(=O)N1CCN(C(=O)CNc2cc(C(F)(F)F)c(Cl)cc2OC)CC1 | 14% | 
2 | Nc1ncnc2c1c(-c1ccc(Oc3ccccc3)cc1)nn2C1CCCN(C(=O)/C=C/Cl)C1 (configuration not stated) |  | 0.52 nM
3 | C=CS(=O)(=O)NC1CCN(C(=O)CNc2cc(I)c(Cl)cc2OC)CC1 | 100% | 
4 | C=CS(=O)(=O)NC1CCN(C(=O)CNc2cc(Cl)c(Cl)cc2O)CC1 | 87% | 

The remaining lines, values ahead:

Row | Activity [1] | IC50 [2] | Structure (SMILES)
5 | 100% |  | C=CC(=O)N1CCN(C(=O)CNc2cc(I)c(Cl)cc2O)CC1
6 | 28% |  | C=CC(=O)N1CCN(C(=O)CNc2cc(Cl)c(Cl)cc2OC)CC1
7 | 50% |  | C=CS(=O)(=O)NC1CCN(C(=O)CNc2c(Cl)cc(Cl)c3c2OC(C)(C)O3)CC1
